Assay results reported in patent publication US20230124467A1, “COMPOUNDS AND METHODS FOR TREATING DISEASES AND/OR CONDITIONS CAUSED BY CORONAVIRUS” (priority 2020, published 2023).
Where a name gives a salt, the structure may show the parent alone. Read-outs that look alike come from different tables or passages of the source.

Legend:
Assay type in all cases: cell-based
SARS-CoV-2 [1] = assay: In vitro antiviral assay, development of cytopathic effects (CPE), Example 1; conditions: for minimal effective concentration: ten-fold dilutions from 25 µM, read-out: Initial titre (Minimum concentration of drug inhibiting development of CPE)
VeroE6 cells = assay: Evaluation of toxicity without virus (CPE and MTT assay), Example 1; conditions: for Minimum Cytotoxicity: absence of virus, 72 h
Method: Serially diluted compounds (⅒ dilution) were added in each well in the absence of virus and incubated for 72 hours, and at end point the CPE was recorded as above. In parallel, a duplicate plate was set up for an MTT assay (Abcam Ab 211091) carried out following the manufacturer’s recommendations. Briefly, the culture medium was discarded and 50 µl of fresh medium and MTT reagent was added to each well, including a background (no cell) control. The plates were returned to the 37° C. incubator for 3 hours before the MTT/media solution was discarded and 150 µl of MTT solvent was added to each well. The plates were incubated for a further 15 minutes in foil on a hula mixer and the absorbance recorded at 590 nm. The percentage of cytotoxicity was calculated as follows: (DMSO control - sample)/DMSO control, after replicate values were averaged and corrected for the background control (no cell control).

SARS-CoV-2 [2] = assay: microbe, parasite or virus in culture
[3] = Severe acute respiratory syndrome coronavirus 2, Vero C1008, 20 PFU/well SARS-CoV-2, VeroE6 cells, 72 h
[4] = Severe acute respiratory syndrome coronavirus 2, Vero C1008, 72 h, 20 PFU/well SARS-CoV-2, VeroE6 cells, 72 h, narrower dilution steps in quadruplicate, read-out: Repeat TCID50 (TCID50 measurement for drugs showing greatest initial efficacy on titration)
[5] = Severe acute respiratory syndrome coronavirus 2, Vero C1008, Table 3A, predetermined IC50 of individual drug, Vero-E6, 20 pfu/well, read-out: IC50 (drug used alone)
[6] = Severe acute respiratory syndrome coronavirus 2, Vero C1008, Vero-E6, 20 pfu/well, 72 h, read-out: IC50 measured when each drug used individually
[7] = Severe acute respiratory syndrome coronavirus 2, Vero C1008, 72 h, read-out: IC50 measured when each drug used individually
[8] = Severe acute respiratory syndrome coronavirus 2, Vero C1008, read-out: IC50 (drug used alone)

Structure (SMILES) | minimal effective concentration (SARS-CoV-2 [1]; [3]) | Minimum Cytotoxicity (VeroE6 cells) | further results
COC(=O)N[C@H](C(=O)N[C@@H](Cc1ccccc1)[C@@H](O)CN(Cc1ccc(-c2ccccn2)cc1)NC(=O)[C@@H](NC(=O)OC)C(C)(C)C)C(C)(C)C [Atazanavir] | > 25 µM | >25 µM | –
C[C@H]1[C@H](NC(=O)/C(=N\OC(C)(C)C(=O)O)c2csc(N)n2)C(=O)N1S(=O)(=O)O [Aztreonam] | > 25 µM | >25 µM | –
CC(C)c1nc(CN(C)C(=O)N[C@@H](CCN2CCOCC2)C(=O)N[C@H](CC[C@H](Cc2ccccc2)NC(=O)OCc2cncs2)Cc2ccccc2)cs1 [Cobicistat] | > 25 µM | >25 µM | –
Nc1nc(F)nc2c1ncn2[C@@H]1O[C@H](COP(=O)(O)O)[C@@H](O)[C@@H]1O [Fludarabine phosphate] | – | 25 µM | cytotoxicity in the MTT assay (VeroE6 cells; at 2.5 µM): none; cytotoxicity in the MTT assay (VeroE6 cells; at 25 µM): showed cytotoxicity
Nc1nc(=O)c2c([nH]1)NCC(CNc1ccc(C(=O)N[C@@H](CCC(=O)[O-])C(=O)[O-])cc1)N2C=O.[Ca+2] (some centres unmarked) [Folinic acid calcium salt hydrate] | – | >25 µM | minimal effective concentration (SARS-CoV-2 [1]; 20 PFU/well SARS-CoV-2, VeroE6 cells, 72 h): >25 µM
CCN(CCO)CCCC(C)Nc1ccnc2cc(Cl)ccc12 (centres unmarked) [Hydroxychloroquine] | 25 µM | 25 µM | IC50 (SARS-CoV-2 [1]; 20 PFU/well SARS-CoV-2, VeroE6 cells, 72 h, narrower dilution steps in quadruplicate, read-out: Repeat TCID50 (TCID50 measurement for drugs showing greatest initial efficacy on titration)): 2900 nM; IC50 (SARS-CoV-2 [1]; [4]): 2000 nM; cytotoxicity in the MTT assay (VeroE6 cells; at 2.5 µM): none; cytotoxicity in the MTT assay (VeroE6 cells; at 25 µM): showed cytotoxicity; IC50 (SARS-CoV-2 [2]; [5]): 1580 nM; IC50 (SARS-CoV-2 [2]; [6]): 1580 nM
CC(C)(C)NC(=O)[C@@H]1CN(Cc2cccnc2)CCN1C[C@@H](O)C[C@@H](Cc1ccccc1)C(=O)N[C@H]1c2ccccc2C[C@H]1O [Indinavir sulfate] | – | >25 µM | –
CS(=O)(=O)c1cccc(C[C@H](NC(=O)c2c(Cl)cc3c(c2Cl)CCN(C(=O)c2ccc4ccoc4c2)C3)C(=O)O)c1 [Lifitegrast] | > 25 µM | >25 µM | –
CCCNS(=O)(=O)Nc1ncnc(OCCOc2ncc(Br)cn2)c1-c1ccc(Br)cc1 [Macitentan] | > 25 µM | >25 µM | –
Cc1c(O)cccc1C(=O)N[C@@H](CSc1ccccc1)[C@H](O)CN1C[C@H]2CCCC[C@H]2C[C@H]1C(=O)NC(C)(C)C [Nelfinavir mesylate] | – | 25 µM | IC50 (SARS-CoV-2 [1]; Severe acute respiratory syndrome coronavirus 2, Vero C1008, 72 h, read-out: Repeat TCID50 (TCID50 measurement for drugs showing greatest initial efficacy on titration), 20 PFU/well SARS-CoV-2, VeroE6 cells, 72 h, narrower dilution steps in quadruplicate): 2900 nM; IC50 (SARS-CoV-2 [1]; read-out: Repeat TCID50 (TCID50 measurement for drugs showing greatest initial efficacy on titration), 20 PFU/well SARS-CoV-2, VeroE6 cells, 72 h, narrower dilution steps in quadruplicate): 2000 nM; cytotoxicity in the MTT assay (VeroE6 cells; at 2.5 µM): none; cytotoxicity in the MTT assay (VeroE6 cells; at 25 µM): showed cytotoxicity; IC50 (SARS-CoV-2 [2]; [7]): 390 nM; IC50 (SARS-CoV-2 [2]; [8]): 390 nM
Cc1onc(-c2ccccc2)c1C(=O)N1CCN(c2ccc([N+](=O)[O-])cc2Cl)CC1 [Nucleozin] | > 25 µM | >25 µM | –
CCC(CC)COC(=O)[C@H](C)N[P@](=O)(OC[C@H]1O[C@@](C#N)(c2ccc3c(N)ncnn23)[C@H](O)[C@@H]1O)Oc1ccccc1 [Remdesivir] | – | – | IC50 (SARS-CoV-2 [2]; [7]): 1560 nM; IC50 (SARS-CoV-2 [2]; [8]): 1560 nM
Cc1cc(/C=C/C#N)cc(C)c1Nc1ccnc(Nc2ccc(C#N)cc2)n1 [Rilpivirine hydrochloride] | > 25 µM | >25 µM | –
Cn1nnc(-c2ccc(-c3ccc(N4C[C@H](COP(=O)(O)O)OC4=O)cc3F)cn2)n1 [Tedizolid phosphate] | > 25 µM | >25 µM | –
CCCc1nc(C)c2c(=O)[nH]c(-c3cc(S(=O)(=O)N4CCN(CC)CC4)ccc3OCC)nn12 [Vardenafil hydrochloride trihydrate, 2-[2-ethoxy-5-(4-ethylpiperazin-1-yl)sulfonylphenyl]-5-methyl-7-propyl-3H-imidazo[5,1-f][1,2,4]triazin-4-one] | 25 µM | >25 µM | IC50 (SARS-CoV-2 [1]; [4]): > 25000 nM; IC50 (SARS-CoV-2 [2]; [5]): 6250 nM; IC50 (SARS-CoV-2 [2]; [6]): 6250 nM
